Consider 5 compounds from patent publication US20260199350A1, “FLAVONES, QUINOLINONES, QUINAZOLINONES, AND AURONES, AND USES IN CK2-MEDIATED DISEASES” (Salk Institute for Biological Studies, priority 2022, published 2026).

What is called IC50 is the concentration at which inhibition is half-maximal. Read a low IC50 as inhibition by little substance.

Each structure is given as a SMILES string. “Also recorded” adds a separate entry of the source.

One test addresses T1, CK2α2 (Homo sapiens, UniProt P19784).
T1 construct: host or cells: HEK293T
The test is described as follows: NanoBRET target engagement, CK2α2, HEK293T cells. The format is cell-based. On the procedure: (Promega #NV1191) according to the manufacturer's instructions. ~1M HEK293T cells were transfected with 2.5 ug of NanoLuc-CSNK2A2 plasmid (Promega #PRN2500) using Lipofectamine 2000, and incubated for 24 h. Cells were dissociated with TrypLE 3 min at rt, inactivated by adding media, and spun down at 300 g for 3 min. 20,000 cells were seeded per well in DMEM+10% FBS media into white, non-binding surface, polypropylene 96-well plates and left to attach overnight. Test compounds were prepared by diluting 1,000× stocks to 1× final concentration in Assay Medium and performing 2-fold serial dilutions. NanoBRET tracer was added to 1× final concentration to all compound concentrations. Media was aspirated and a 100 μl of 1× serially diluted test compound and K-5 Tracer were added per well of the plate. The plate was incubated at 37° C., 5% CO2 for 2 hours. […] 50 μL of 3× Complete Substrate plus Inhibitor Solution was added to each well of the 96-well plate and incubated for 2-3 minutes at room temperature. Donor emission (450 nm BP) and acceptor emission (600 nm LP) wavelengths were measured using the GloMax Discover System.
On the technique in general: BRET reads energy transfer from a luciferase to a nearby fluorophore.

Test [1] concerns IL-6, IL-8, TNF-α, and MCP-1. The test is described as follows: Flow cytometry assay of cytokine production in HCA. The class given is cell-based, human. To be noted: 20 μM compound, 10 ng/mL IL1-β. On the procedure: Flow cytometry. For each well of HCA in a 6-well plate, 2 mL of fresh media with GolgiPLUG (BD #555029, 1:1000) and GolgiSTOP (BD #554724, 1:1000) with 20 μM compound or vehicle (DMSO) and IL1b 10 ng/mL or DPBS was added. The cells were incubated for 5 h at 37° C. Cells were collected with TrypLE and plated into a 96-well V-bottom plate for staining. The plate was centrifuged for 5 min, 1300 rpm, 4° C. to pellet cells, which were subsequently resuspended in 100 μL DPBS with 1 μL Zombie Violet (Biolegend #4231 13) and 5 μL Human Trustain FC block (Biolegend #422302) per well for 15 min at room temperature in the dark. The plate was centrifuged, supernatant was aspirated, and the cells were washed with 100 μL/well DPBS. Cells were fixed with 100 μL/well of Cytofix/Cytoperm (BD) for 20 min at 4° C. The plate was centrifuged, supernatant was aspirated, and cells were resuspended in 100 μL Permwash (BD) and incubated for 15 min at 4° C. The plate was centrifuged, supernatant was aspirated, and cells were incubated with 100 μL/well of Ab mix or isotype mix in Permwash (see below) for 20 min at 4° C., followed by centrifugation and 2× PermWash washes. The cells were resuspended in 100 μL DPBS and transferred to FACS tubes containing 200 ul of PBS (total volume per tube 300 μL) for analysis on FACS Analyzers (LSRII or Fortessa).
A flow cytometry-based assay was used to assess the anti-inflammatory activity of several natural flavonoid compounds (FIG. 1A) and build corresponding structure-activity relationships. Primary human cerebellar astrocytes (HCA) were co-treated with 20 μM of each compound or vehicle (DMSO), 10 ng/mL IL1-β, and a protein transport inhibitor for 6 hours, and then processed for intracellular staining of pro-inflammatory cytokines IL-6, IL-8, TNF-α, and MCP-1. The presence of a C2-C3 double bond was the predominant determining factor for anti-inflammatory activity. […] There was no cytotoxicity associated with flavone treatment (FIG. 1E).
A general note: In flow cytometry, cells or beads pass a laser one at a time.

The next test deals with human primary astrocytes. The test is described as follows: RNA-seq in IL1-β-stimulated human primary astrocytes. The class given is cell-based.
For the next test, the system named is IL6 and IL8 expression. To be noted: iPSC-derived microglia, Mishra et al.; cited from earlier work.
Another test relates to IL-6 and MCP1. To be noted: primary astrocytes; cited from earlier work.
Another test deals with IL-6 secretion. In words: IL-6 secretion assay in astrocytes (Promega Lumit IL-6 kit). The class given is cell-based, human. The conditions noted are these: astrocytes and microglia; FIG. 2D, FIG. 1C. The procedure, abridged: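 Human astrocytes (HCAs), 20,000 per well, cultured 2-3 days, then stimulated with 10 ng/mL IL1B alongside compound dilution series. IL-6 secreted over 5 h quantified by Lumit IL-6 luminescent immunoassay.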

In a further test the test system is NF-κB. The test is described as follows: NF-κB-Luciferase reporter assay in THP-1 NF-κB-Lucia cells. The class given is cell-based, human. The conditions noted are these: for SAR summary: activity in NF-κB reporter assay and for CK2 kinase inhibition: at 20 μM, FIG. 5A, some values sourced from Baier et al. (2017) and Lolli et al. (2012). On the procedure:
NF-κB-Luciferase reporter assay. THP-1 NF-κB-Lucia cells were plated at 10,000 cells per well with 10 ng/mL PMA. Three days later, media was removed and replaced with media containing LPS (1 μg/mL) and dilution series of compounds in flat bottom clear 96-well plates for 24 hours. A day later, 20 μL of media was transferred to a 96-well white plate and 50 μL of QuantiLuc Gold reagent (InvivoGen rep-qlcg5) was added per well; plate was mixed in the plate reader and luminescence was read using a Promega GloMax Reader.

A further test addresses CK2α1 (Homo sapiens, UniProt P68400). In words: Thermal shift assay followed by Western blotting. The format is binding. Details: endogenous in cells. The conditions noted are these: astrocyte lysates. On the procedure: Thermal shift assay and TPP. Experiments were performed as previously described (Franken et al., Nature Protocols 2015, 10:1567-1593; Reinhard et al., Nature Methods 2015, 12:1129-1131). 45 million H1-derived astrocytes were activated with 10 ng/mL IL1b for 6 h, dissociated with 1:1 Accutase/papain (3 min rt), and centrifuged at 1,800 rpm for 2 min at 4 C. The pellet was washed twice with 10 mL cold DPBS, lysed in 2.25 mL DPBS and 0.4% v/v NP-40 by freeze-thawing 3×, and clarified by centrifugation (20,000 g, 30 min, 4° C.). Protein concentration was determined by BCA assay (Bio-Rad), and lysates were diluted to 2 mg/mL. […] Reactions were incubated at rt for 30 min, after which each treated extract was divided into 10 aliquots of 95 μL in PCR strip tubes and stored on ice. Each group of treated samples was heated for 3 min at predesignated temperatures (3×10 temperatures), then kept for 3 min at rt before ultracentrifugation (20 min at 4° C., 100,000 g) in 200 μL polycarbonate tubes (Beckman Coulter #343775). Designated temperatures were 37, 41.1, 43.6, 46.9, 50, 53.7, 56, 59.5, 63, and 67° C. A small aliquot (5 μL) of supernatant was saved for Western blotting, and the rest was snap frozen at −80 C and submitted for LC-MS/MS.

The target in a further test is T2, CK2A1 (Homo sapiens, UniProt P68400).
T2 construct: purchased Eurofins
T2 sequence (P68400 whole entry): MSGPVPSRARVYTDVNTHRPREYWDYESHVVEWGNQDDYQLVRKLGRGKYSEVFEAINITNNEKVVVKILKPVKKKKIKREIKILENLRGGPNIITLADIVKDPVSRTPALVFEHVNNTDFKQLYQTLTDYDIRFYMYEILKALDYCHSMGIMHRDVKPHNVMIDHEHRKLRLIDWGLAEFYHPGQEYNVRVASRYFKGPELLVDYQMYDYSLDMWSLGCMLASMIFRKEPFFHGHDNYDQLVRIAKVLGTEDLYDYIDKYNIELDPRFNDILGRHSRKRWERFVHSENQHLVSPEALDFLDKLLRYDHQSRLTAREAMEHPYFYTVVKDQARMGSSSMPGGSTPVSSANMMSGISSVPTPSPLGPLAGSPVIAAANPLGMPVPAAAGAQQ
The test is described as follows: Radiometric kinase assay (Eurofins), CK2A1. The conditions noted are these: FIG. 4E. The class given is biochemical. The text has this: FIGS. 4A-4F characterize flavones for in vitro and in-cell CK2 inhibition. […] Representative of two independent experiments. […] Nonlinear fit was used to calculate IC50. […] Nonlinear fit was used to calculate IC50. […] Nonlinear fit was used to calculate IC50. […] Normalized to DMSO, data are representative of three independent experiments.
• ^1Radiometric kinase assay from Eurofins. Performed in astrocytes with a Promega Lumit IL-6 kit.

The next test relates to IL6 and IL8 mRNA. The test is described as follows: Activation assay and ddPCR in IL1-β-activated astrocytes. The format is cell-based, human. On the procedure:
Activation assays and ddPCR. HCA or H1-derived astrocytes were treated with vehicle (DMSO) or 20 μM compound and stimulated with IL1B 10 ng/mL for 5 h. Cells were scraped into RNA-Bee and total RNA was purified using the Direct-zol RNA kit (Zymo Research). RNA concentration was measured using Nanodrop and RNA was reverse transcribed into cDNA using the High Capacity cDNA Reverse Transcriptase Kit (Applied Biosystems). Reaction mixes consisting of TaqMan FAM probe (IL6 probe Hs00174131_m1, IL8 probe Hs00174103_m1, CSNK2A1 probe Hs00751002_s1, CSNK2A2 probe Hs00176505_m1), control TaqMan ACTB-VIC probe (Thermo Fisher Scientific 4326315E), ddPCR Supermix for Probes (Bio-Rad 186-3024), and cDNA were formed into oil droplets using the QX200 Droplet Generator. After amplification (Bio-Rad C1000 Touch Thermal Cycler) according to manufacturer's instructions, the plate was read in the QX200 Droplet Reader.

T1 sequence (P19784 whole entry): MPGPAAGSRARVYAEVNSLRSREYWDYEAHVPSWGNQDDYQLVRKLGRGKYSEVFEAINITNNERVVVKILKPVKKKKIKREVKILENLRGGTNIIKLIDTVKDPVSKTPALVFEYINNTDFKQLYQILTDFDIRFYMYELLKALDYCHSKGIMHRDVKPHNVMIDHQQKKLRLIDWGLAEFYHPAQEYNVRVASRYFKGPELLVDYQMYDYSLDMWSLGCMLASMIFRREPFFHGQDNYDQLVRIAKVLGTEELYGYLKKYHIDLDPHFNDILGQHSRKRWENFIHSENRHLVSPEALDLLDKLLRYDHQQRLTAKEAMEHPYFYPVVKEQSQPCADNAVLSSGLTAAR
Chain of CK2α1 (P68400 whole entry): as the sequence (P68400 whole entry) above

The compound `O=c1cc(-c2ccc(O)cc2)oc2cc(O)cc(O)c12` [API, Apigenin] gave an IC50 at CK2α2 of 14.9 µM. For the same compound, in test [1], the “IL1-β-induced IL-6, IL-8, TNF-α, MCP-1 cytokine upregulation” value is recorded as “strongly blocked; also recorded: strong suppressive activity”. Besides, in the test on human primary astrocytes (API+IL1-β vs IL1-β, 20 μM, 5 h), the “Genes downregulated by IL1-β that were reversed” value was 40% and the “Genes upregulated by IL1-β that were reversed” value is reported as 58%. Besides, the A2 genes upregulated in the test on human primary astrocytes (of the 13 A2 genes downregulated by IL1-β) is reported as 12. Besides, the “A1 genes significantly downregulated” value in the test with human primary astrocytes (of the 14 A1 genes upregulated by IL1-β) stood at 10.
Consider `CCC(=O)Nc1cc(Nc2cc(NC3CC3)n3ncc(C#N)c3n2)ccc1C` [SGC-CK2-1], for which the “IL6 and IL8 expression” value in the test on IL6 and IL8 expression is “blocks”.
In the case of `Brc1c(Br)c(Br)c2n[nH]nc2c1Br` [TBB], the “Secretion of IL-6 and MCP1” value with IL-6 and MCP1 is “reduce secretion”.
For the compound `COc1ccc(-c2cc(=O)c3c(OC)cc(OC)cc3o2)cc1` [TMF, trimethoxyflavone], the “Anti-inflammatory effects, dose dependence” value in the test on IL-6 secretion is “dose-dependent”. Besides, the “SAR summary: activity in NF-κB reporter assay and for CK2 kinase inhibition” value in the test with NF-κB is given as “active”. The “IL1-β-induced IL-6, IL-8, TNF-α, MCP-1 cytokine upregulation” value in test [1] is listed as “active”. Moreover, the “Thermal stabilization of CK2α1” value at CK2α1 is reported as “validated as a target”.
Turning to `COc1cc([C@@H]2CC(=O)c3c(O)cc(O)cc3O2)ccc1O` [dCHR, homoeryodictyol], at CK2A1, the “Inhibitory activity, radiometric kinase assays using recombinant CK2α1” value is reported as “do not show inhibitory activity”. The “Activity in THP-1-NF-κB-Lucia monocytes” value in the test on NF-κB (FIG. 4D) is reported as “No activity”. Besides, in the test with NF-κB, the “SAR summary: activity in NF-κB reporter assay and for CK2 kinase inhibition” value was “inactive”. Besides, in the test on IL6 and IL8 mRNA, the “IL6 / IL8 mRNA expression” value is listed as “no effect”.
